One data set deals with Mus musculus. In words: Analgesic Activity in sc dosed albino dd mouse by tail pressure stimuli method. Type of data set: functional.
A short description of data set [1]: Acute toxicity in iv dosed albino dd mouse. Type of data set: organism-based. The settings on record: in vivo.

The values below come from ChEMBL document CHEMBL3272169, “10-Hydroxy-4-methyl-2,3,4,5,6,7-hexahydro-1,6-methano-1H-4-benzazonine derivatives (homobenzomorphans) as analgesics” (J Med Chem, 1976).

Structures can show the parent of a compound that is named as a salt.

In turn, `CC(O)C(=O)O.CN1CCC2CC(Cc3ccccc32)C1` (stereo unspecified) yielded an ED50 in the data set on Mus musculus of 53.1 µmol/kg. Further, in data set [1], the LD50 was 106 µmol/kg.

As for `Br.CN1CC[C@@H]2CC(Cc3ccc(O)cc32)C1`, the ED50 in the data set with Mus musculus stood at 10.7 µmol/kg. The LD50 in data set [1] is 121 µmol/kg.

As to `CC(O)C(=O)O.C[C@H]1C2Cc3ccc(O)cc3[C@@H]1CCN(C)C2`, in the data set with Mus musculus, the ED50 stood at 9.9 µmol/kg. In addition, the LD50 in data set [1] stood at 184 µmol/kg.

On to `CC(O)C(=O)O.C[C@@H]1C2Cc3ccc(O)cc3[C@@H]1CCN(C)C2`, for which the 50% effect level with Mus musculus (ED50) was put at a dose of 8 µmol/kg. The compound further displayed an LD50 in data set [1] of 153 µmol/kg.

`CC(O)C(=O)O.CN1CC[C@]2(C)CC(Cc3ccc(O)cc32)C1` displayed an ED50 in the data set on Mus musculus of 7 µmol/kg. This compound yielded an LD50 in data set [1] of 67 µmol/kg.

The compound `CC(O)C(=O)O.C[C@H]1C2Cc3ccc(O)cc3[C@]1(C)CCN(C)C2` gave an ED50 in the data set on Mus musculus of 5.2 µmol/kg. Also, the LD50 in data set [1] was determined as 126 µmol/kg.

With `Br.C[C@@H]1C2Cc3ccc(O)cc3[C@]1(C)CCN(C)C2`, in the data set with Mus musculus, the ED50 was determined as 4.1 µmol/kg. The same compound gave an LD50 in data set [1] of 113 µmol/kg.

In turn, `COc1ccc2c3c1O[C@H]1[C@@H](O)C=C[C@H]4[C@@H](C2)N(C)CC[C@@]341` [CODEINE PHOSPHATE] registered an ED50 in the data set on Mus musculus of 30.7 µmol/kg.

On to `CN1CC[C@]23c4c5ccc(O)c4O[C@H]2[C@@H](O)C=C[C@H]3[C@H]1C5` [MORPHINE HYDROCHLORIDE], for which the ED50 with Mus musculus came to 4.4 µmol/kg.
